Test results reported in patent publication US9365556B2, “3,5-diaminopyrazole kinase inhibitors” (Axikin Pharmaceuticals, Inc., priority 2012, dated 2016).

Assays:
[1] = target: T1, kinase domain protein of RC kinase (Homo sapiens, UniProt Q56UN5); experiment: Enzymatic assay for kinase inhibitory activity (Crebtide substrate, LANCE read-out); type: biochemical; details: compound at 1 μM
T1 sequence (Q56UN5 1061-1324 limits assumed): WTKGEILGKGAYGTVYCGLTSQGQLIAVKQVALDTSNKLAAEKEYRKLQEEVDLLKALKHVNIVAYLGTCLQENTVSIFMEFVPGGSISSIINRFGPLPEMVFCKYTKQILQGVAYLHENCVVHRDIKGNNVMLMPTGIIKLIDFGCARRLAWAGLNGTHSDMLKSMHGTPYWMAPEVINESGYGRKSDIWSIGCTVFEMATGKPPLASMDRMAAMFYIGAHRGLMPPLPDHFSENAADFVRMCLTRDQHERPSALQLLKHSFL
Protocol: Solutions of a test compound, Crebtide (a substrate), a kinase, and ATP were prepared using 1×MAPK Buffer (50 mM HEPES, 1 mM EGTA, […], 10 mM MgCl2, 2 mM DTT, and 0.01% Tween 20).
To each well, the test compound (1 μL) was first added (in duplicate) to reach a final concentration of 1 μM or 1×IC50 of the compound. The kinase (5 μl) was then added to each well to reach a final concentration of […] for the kinase domain or […] for the full-length domain. Each plate included a positive and negative controls in duplicate wells. Crebtide (2.5 μL) was then added to each well in duplicate to reach a final concentration of 50 nM. If the full-length kinase was used, the plates were incubated for 45 min at room temperature before proceeding further. ATP (2.5 μL) was added to each well to reach a final concentration of 1 μM for the kinase domain and 3 μM for the full-length.
After the addition of ATP, the plates were incubated for 45 min at room temperature. During the incubation, an EDTA solution (40 mM) and anti-Crebtide ([…]) were prepared. Additionally, a detection buffer stock solution was diluted ten fold before use.
After the incubation, the anti-Crebtide (5 μL) and EDTA (5 μL) were added to each well to reach their final concentrations of […] and 10 mM, respectively. The plates were allowed to develop at room temperature for 45 min. The plates were then read at 665 nm and 615 nm using Perkin Elmer Lance machine.
The biological results of inhibition of the kinase domain protein of RC kinase are summarized in Tables 2 and 3, wherein A represents at least 50% inhibition of the RC kinase activity at 1 μM; B represents no greater than 50% but at least 20% inhibition of the RC kinase activity at 1 μM; C represents no greater than 20% but at least 5% inhibition of the RC kinase activity at 1 μM; and D represents no greater than 5% inhibition of the RC kinase activity at 1 μM.

SMILES	inhibition at 1 µM [1]	melting point	Activity (inhibition of the RC kinase activity) [1]	Activity (inhibition of the RC kinase activity) ([1]; 1 µM)
N#Cc1c(Nc2cccc(Cl)c2)n[nH]c1/N=C/c1c[nH]nc1-c1ccc(F)cc1 [Compound A1]	≤ 5%	127 to 132 °C	–	–
N#Cc1c(Nc2cccc(Cl)c2)n[nH]c1/N=C/c1ccc(Cl)cc1Cl [Compound A4]	≤ 5%	277 to 281 °C	–	–
N#Cc1c(Nc2cccc(Cl)c2)n[nH]c1N=Cc1ccc(O)c([N+](=O)[O-])c1 [Compound A5, 3-((3-chlorophenyl)amino)-5-((4-hydroxy-3-nitrobenzylidene)amino)-1H-pyrazole-4-carbonitrile]	20 to 50%	286 to 288 °C	–	–
N#Cc1c(Nc2ccccc2)n[nH]c1/N=C/c1ccc(Cl)cc1 [Compound A7]	5 to 20%	276 to 278 °C	–	–
N#Cc1c(Nc2ccccc2)n[nH]c1/N=C/c1cccc2ccccc12 [Compound A8]	5 to 20%	259 to 263 °C	–	–
N#Cc1c(Nc2ccccc2)n[nH]c1/N=C/c1ccccc1 [Compound A9]	20 to 50%	257 to 260 °C	–	–
N#Cc1c(Nc2ccccc2)n[nH]c1/N=C/c1ccc(O)c([N+](=O)[O-])c1 [Compound A10]	5 to 20%	284 to 286 °C	–	–
N#Cc1c(Nc2cccc(Cl)c2)n[nH]c1/N=C/c1ccccc1 [Compound A11]	5 to 20%	260 to 264 °C	–	–
N#Cc1c(Nc2cccc(Cl)c2)n[nH]c1/N=C/c1ccc(Cl)cc1 [Compound A12]	20 to 50%	283 to 286 °C	–	–
COc1ccc(/C=N/c2[nH]nc(Nc3cccc(Cl)c3)c2C#N)cc1 [Compound A13]	5 to 20%	263 to 266 °C	–	–
N#Cc1c(Nc2cccc(Cl)c2)n[nH]c1/N=C/c1ccc(C(F)(F)F)cc1 [Compound A15, 3-((3-chlorophenyl)amino)-5-((4-(trifluoromethyl)benzylidene)amino)-1H-pyrazole-4-carbonitrile]	5 to 20%	279 to 282 °C	–	–
N#Cc1c(Nc2ccccc2)n[nH]c1/N=C/c1ccc([N+](=O)[O-])cc1 [Compound A19]	5 to 20%	290 to 294 °C	–	–
N#Cc1c(Nc2cccc(Cl)c2)n[nH]c1/N=C/c1ccc(O)cc1 [Compound A20]	≤ 5%	242 to 245 °C	–	–
COc1cc(/C=N/c2[nH]nc(Nc3ccccc3)c2C#N)ccc1O [Compound A21, 5-((4-hydroxy-3-methoxybenzylidene)amino)-3-(phenylamino)-1H-pyrazole-4-carbonitrile]	5 to 20%	208 to 214 °C	–	–
N#Cc1c(Nc2ccccc2)n[nH]c1/N=C/c1ccc(O)cc1 [Compound A22]	≤ 5%	241 to 245 °C	–	–
COc1ccccc1/C=N/c1[nH]nc(Nc2cccc(Cl)c2)c1C#N [Compound A23]	20 to 50%	239 to 241 °C	–	–

SMILES	inhibition at 1 µM [1]	melting point	Activity (inhibition of the RC kinase activity) [1]	Activity (inhibition of the RC kinase activity) ([1]; 1 µM)
COc1ccccc1/C=N/c1[nH]nc(Nc2ccccc2)c1C#N [Compound A26]	5 to 20%	202 to 206 °C	–	–
N#Cc1c(Nc2cccc(Cl)c2)n[nH]c1/N=C/c1cc(F)cc2c1OCOC2 [Compound A29, 3-((3-chlorophenyl)amino)-5-(((6-fluoro-4H-benzo[d][1,3]dioxin-8-yl)methylene)amino)-1H-pyrazole-4-carbonitrile]	5 to 20%	248 to 251 °C	–	–
N#Cc1c(Nc2ccccc2)n[nH]c1/N=C/c1cc(F)cc2c1OCOC2 [Compound A30]	5 to 20%	247 to 251 °C	–	–
N#Cc1c(Nc2ccc(Cl)cc2)n[nH]c1/N=C/c1ccc(O)cc1 [Compound A32]	5 to 20%	286 to 288 °C	–	–
COc1ccc(/C=N/c2[nH]nc(Nc3ccc(Cl)cc3)c2C#N)cc1 [Compound A33]	≤ 5%	290 to 291 °C	–	–
N#Cc1c(Nc2ccc(Cl)cc2)n[nH]c1/N=C/c1ccc(Cl)cc1 [Compound A35]	≤ 5%	296 to 300 °C	–	–
COc1ccccc1/C=N/c1[nH]nc(Nc2ccc(Cl)cc2)c1C#N [Compound A38]	≤ 5%	262 to 265 °C	–	–
N#Cc1c(Nc2ccc(Cl)cc2)n[nH]c1/N=C/c1cccc2ccccc12 [Compound A40]	≤ 5%	289 to 292 °C	–	–
COc1ccc(Nc2n[nH]c(/N=C/c3ccc(O)c([N+](=O)[O-])c3)c2C#N)cc1 [Compound A42]	≤ 5%	274 to 275 °C	–	–
COc1ccc(/C=N/c2[nH]nc(Nc3ccc(OC)cc3)c2C#N)cc1 [Compound A43]	≤ 5%	246 to 250 °C	–	–
COc1ccc(Nc2n[nH]c(/N=C/c3ccc([N+](=O)[O-])cc3)c2C#N)cc1 [Compound A46]	≤ 5%	242 to 248 °C	–	–
N#Cc1c(NC2CC2)n[nH]c1/N=C/c1ccc(O)cc1 [Compound A48, 3-(cyclopropylamino)-5-((4-hydroxybenzylidene)amino)-1H-pyrazole-4-carbonitrile]	≤ 5%	220 to 228 °C	–	–
NC(=O)c1c(Nc2ccccc2Cl)n[nH]c1/N=C/c1ccccc1 [Compound B115]	–	–	B (no greater than 50% but at least 20% inhibition of the RC kinase activity at 1 μM)	–
NC(=O)c1c(Nc2ccccc2Cl)n[nH]c1/N=C/c1cc(O)ccc1[N+](=O)[O-] [Compound B116]	–	–	C (no greater than 20% but at least 5% inhibition of the RC kinase activity at 1 μM)	–
NC(=O)c1c(Nc2cccc(Cl)c2)n[nH]c1/N=C/c1ccc(Oc2ncccn2)cc1 [Compound B123]	–	–	–	B (no greater than 50% but at least 20% inhibition of the RC kinase activity at 1 μM)

More lines, main results first:

inhibition at 1 µM [1]	melting point	SMILES	Activity (inhibition of the RC kinase activity) [1]	Activity (inhibition of the RC kinase activity) ([1]; 1 µM)
5 to 20%	288 to 290 °C	CC(C)(C)c1ccc(Nc2n[nH]c(/N=C/c3ccc(Cl)cc3)c2C#N)cc1 [Compound A53]	–	–
5 to 20%	193 to 197 °C	COc1ccc(Nc2n[nH]c(/N=C/c3ccc(O)cc3)c2C#N)cc1 [Compound A54]	–	–
5 to 20%	210 to 220 °C	COc1cc(/C=N/c2[nH]nc(Nc3cccc(Cl)c3)c2C#N)ccc1OCc1cnc(Cl)s1 [Compound A60]	–	–
5 to 20%	264 to 268 °C	N#Cc1c(Nc2cccc(Cl)c2)n[nH]c1/N=C/c1ccc(Oc2ccc(C(F)(F)F)cn2)cc1 [Compound A61]	–	–
5 to 20%	194 to 202 °C	Cn1nc(CSc2ccccc2)c(/C=N/c2[nH]nc(Nc3cccc(Cl)c3)c2C#N)c1Cl [Compound A62]	–	–
5 to 20%	65 to 72 °C	N#Cc1c(Nc2cccc(Cl)c2)n[nH]c1/N=C/C1CCCN1C(=O)OCc1ccccc1 (centres unmarked) [Compound A63]	–	–
20 to 50%	217 to 225 °C	N#Cc1c(Nc2cccc(Cl)c2)n[nH]c1/N=C/c1cccn1S(=O)(=O)c1ccccc1 [Compound A64]	–	–
5 to 20%	200 to 216 °C	N#Cc1c(Nc2cccc(Cl)c2)n[nH]c1/N=C/c1ccc(S(F)(F)(F)(F)F)cc1 [Compound A65, 3-((3-chlorophenyl)amino)-5-((4-(pentafluorolthio)benzylidene)amino)-1H-pyrazole-4-carbonitrile]	–	–
20 to 50%	308 to 310 °C	N#Cc1c(Nc2cccc(Cl)c2)n[nH]c1/N=C/c1ccc(-n2cnc3ccccc32)cc1 [Compound A67]	–	–
5 to 20%	343 to 347 °C	N#Cc1c(Nc2cccc(Cl)c2)n[nH]c1/N=C/c1c[nH]c2c(F)c(F)c(F)c(F)c12 [Compound A68]	–	–
≤ 5%	189 to 197 °C	COc1ccc(C(F)(F)F)cc1/C=N/c1[nH]nc(Nc2cccc(Cl)c2)c1C#N [Compound A75]	–	–
5 to 20%	234 to 239 °C	N#Cc1c(Nc2cccc(Cl)c2)n[nH]c1/N=C/c1cccc(Oc2ncccn2)c1 [Compound A76]	–	–
≤ 5%	273 to 279 °C	N#Cc1c(Nc2cccc(Cl)c2)n[nH]c1/N=C/c1ccc(N2CCOCC2)nc1 [Compound A79]	–	–
≥ 50%	–	NC(=O)c1c(Nc2cccc(Cl)c2)n[nH]c1/N=C/c1cc[nH]c1 [Compound B111]	–	–
